Laboratory results taken from the CheMixHub viscosity set.

Assay: xn = mol fraction of the nth substance listed

CC1=CCC(=C(C)C)CC1 + Clc1ccccc1
viscosity [mPa·s], 101 kPa
Conditions	x1 = 0.0668	x1 = 0.1386	x1 = 0.2162	x1 = 0.3003	x1 = 0.3917	x1 = 0.4913	x1 = 0.6004	x1 = 0.7203	x1 = 0.8528
303.15 K	0.729	0.761	0.798	0.836	0.874	0.908	0.934	0.955	0.974
308.15 K	0.692	0.722	0.756	0.791	0.826	0.858	0.881	0.897	0.913
313.15 K	0.649	0.677	0.709	0.743	0.775	0.804	0.825	0.839	0.853

CC(F)(F)F + FC(F)C(F)(F)F
viscosity [mPa·s], 101 kPa
Conditions	x1 = 0.248	x1 = 0.5	x1 = 0.759
298.15 K	0.1286	0.1205	0.117
313.15 K	0.1036	–	–

CC(F)(F)F + FCC(F)(F)F
viscosity [mPa·s], 101 kPa
Conditions	x2 = 0.247	x2 = 0.5	x2 = 0.743
298.15 K	0.126	0.1447	0.1691
313.15 K	0.105	0.1187	0.1358

CC1=CCC(=C(C)C)CC1 + Fc1ccccc1
viscosity [mPa·s], 101 kPa
Conditions	x1 = 0.062	x1 = 0.1294	x1 = 0.2031	x1 = 0.2839	x1 = 0.3729	x1 = 0.4714	x1 = 0.5811	x1 = 0.704	x1 = 0.8425
303.15 K	0.563	0.61	0.661	0.715	0.771	0.824	0.87	0.912	0.951
308.15 K	0.53	0.572	0.621	0.672	0.725	0.774	0.818	0.855	0.889
313.15 K	0.498	0.536	0.582	0.631	0.681	0.727	0.767	0.8	0.831

CCCCn1cc[n+](C)c1.F[P-](F)(F)(F)(F)F + NCCO
viscosity [mPa·s], 101 kPa
Conditions	x2 = 0.1185	x2 = 0.2113	x2 = 0.3052	x2 = 0.4282	x2 = 0.4918	x2 = 0.6161	x2 = 0.6984	x2 = 0.8022	x2 = 0.9028
293.15 K	–	124.5	102.5	78.15	68.3	51.7	43.55	34.1	27.33
298.15 K	–	92.28	76.44	58.74	51.63	39.18	33.39	26.29	–
303.15 K	–	–	57.84	44.92	39.41	30.4	25.89	–	–
308.15 K	67.48	54.83	44.08	34.54	30.31	–	–	–	–
313.15 K	–	42.41	34.89	27.36	–	–	–	–	–
318.15 K	42.44	33.84	28.14	–	–	–	–	–	9.08
323.15 K	34.88	28.08	–	–	–	–	–	9.09	7.67

[Na+].[O-][Cl+2]([O-])[O-] + O
viscosity [mPa·s], 100 kPa
Conditions	x1 = 0.001798	x1 = 0.003644	x1 = 0.005393	x1 = 0.007261	x1 = 0.008945	x1 = 0.01087	x1 = 0.01261	x1 = 0.01436	x1 = 0.01582	x1 = 0.01761
293.15 K	0.996	1.007	1.017	1.025	1.033	1.042	1.05	1.058	1.067	1.076
298.15 K	0.889	0.897	0.908	0.918	0.926	0.933	0.942	0.949	0.957	0.965
303.15 K	0.801	0.809	0.817	0.827	0.835	0.841	0.849	0.857	0.865	0.873
308.15 K	0.726	0.734	0.742	0.75	0.758	0.765	0.774	0.781	0.788	0.796
313.15 K	0.663	0.67	0.678	0.685	0.693	0.7	0.708	0.716	0.723	0.729
318.15 K	0.609	0.616	0.623	0.631	0.637	0.643	0.65	0.657	0.665	0.672
